The NIST ThermoML archive (doi:10.1016/j.jct.2008.08.013)

Assay: xn = mol fraction of the nth substance listed
Details: 101 kPa, Liquid, Vibrating tube method

ClCCl [dichloromethane] + O=[N+]([O-])c1ccccc1
mass density [kg/m3]
Details | 288.15 K | 293.15 K | 298.15 K | 303.15 K
x1 = 0.021 | 1213.16 | 1204.27 | 1199.65 | 1195.1
x1 = 0.1053 | 1219.99 | 1211.21 | 1206.52 | 1201.87
x1 = 0.2003 | 1228.35 | 1219.76 | 1214.95 | 1210.13
x1 = 0.2499 | 1233.02 | 1224.51 | 1219.62 | 1214.69
x1 = 0.3003 | 1238.01 | 1229.63 | 1224.61 | 1219.55
x1 = 0.3521 | 1243.35 | 1235.09 | 1229.95 | 1224.73
x1 = 0.4025 | 1248.78 | 1240.64 | 1235.37 | 1229.98
x1 = 0.4492 | 1254.01 | 1245.99 | 1240.56 | 1235.01
x1 = 0.4975 | 1259.65 | 1251.71 | 1246.14 | 1240.37
x1 = 0.5512 | 1266.13 | 1258.32 | 1252.51 | 1246.51
x1 = 0.5995 | 1272.2 | 1264.47 | 1258.48 | 1252.21
x1 = 0.6495 | 1278.7 | 1271.04 | 1264.8 | 1258.26
x1 = 0.6999 | 1285.45 | 1277.91 | 1271.39 | 1264.55
x1 = 0.7496 | 1292.42 | 1284.93 | 1278.12 | 1270.91
x1 = 0.799 | 1299.65 | 1292.18 | 1285 | 1277.46
x1 = 0.8501 | 1307.44 | 1299.97 | 1292.47 | 1284.49
x1 = 0.8975 | 1315.12 | 1307.6 | 1299.69 | 1291.27
x1 = 0.9798 | 1329.58 | 1321.91 | 1313.24 | 1303.98
